Results: patent US5500344A, “Serine protease and uses thereof” (The United States of America as represented by the …, priority 1992, dated 1996)
Non-standard residues stand in square brackets, D forms with d. Residues, ends and D or L forms follow the SMILES beside them. *: point of attachment. Nle = CCCC[C@H](N)C(=O)O; Boc = CC(C)(C)OC(=O)*; SBn = c1ccc(CS*)cc1

Experiments:
Type in all cases: biochemical
Tryptase = biological target: T1, Tryptase (Rattus norvegicus, UniProt P49864); assay: Initial rates of peptide thiobenzyl ester substrate hydrolysis by HPLC-purified Tryptase (HPLC fraction 56); conditions: 10 μl enzyme solution (HPLC fraction 56); [S] 100-133 μM; pH 7.5, 25° C.
T1 construct: The BLT-esteraseactivity was found in fractions 49 and 56; endogenous in cells; host or cells: rat RNK-16 NK/LGL leukemia cells, cytolytic granules, HPLC fraction 56
T1 sequence (P49864 26-258): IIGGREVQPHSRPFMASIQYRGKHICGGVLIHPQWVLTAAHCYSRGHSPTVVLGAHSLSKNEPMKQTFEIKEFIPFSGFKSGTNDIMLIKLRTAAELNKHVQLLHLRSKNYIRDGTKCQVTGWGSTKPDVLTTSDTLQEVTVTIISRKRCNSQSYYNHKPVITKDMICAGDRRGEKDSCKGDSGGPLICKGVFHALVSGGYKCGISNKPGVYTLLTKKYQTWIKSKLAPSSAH
Procedure: (§1) Briefly, 50 μl of sample was added to 100 μl of 1 mM DTNB, made up in 10 mM Hepes, 1 mM CaCl2, 1 mM MgCl2, pH7.2. The reaction was initiated by the addition of 50 μl of BLT (Sigma) to give a final concentration of 500 μM. For Metase determinations, 50 μl of dilutions of the sample in 0.1M Hepes, 0.05M CaCl2, pH7.5 were added to 100 μl of 1 mM DTNB and the reaction was initiated by the addition of 50 μl of Boc-Ala-Ala-Met-S Benzyl (Bzl) to give a final concentration of 150 μM. The duration of the assay depended on color development, the rate of which was measured (0.D410) on a Dynatech MR 5000 microplate reader. Controls of sample and DTNB alone or DTNB and substrate alone were run. For more sensitive comparisons of enzymatic activities, peptide thiobenzyl ester substrates were used to measure protease activities. The chymase substrate Suc-Phe-Leu-Phe-SBzl was purchased from BACHEM Bioscience Inc., Philadelphia, Pa. […] Boc-Ala-Ala-Asp-SBzl is the substrate for Asp-ase and peptide thiobenzyl esters containing Met, Leu or Nle are substrates for Met-ase SP. […] The initial rates were measured at 324 nm using a Beckman 35 spectrophotometer when 10-25 μl of an enzyme stock solution was added to a cuvette containing 2.0 ml of buffer, 150 μl of 4,4'-dithiodipyridine and 25 μl of substrate. The same volume of substrate and 4,4'-dithiodipyridine were added to the reference cell in order to compensate for the background hydrolysis rate of the substrates. Initial rates were measured in duplicate for each substrate concentration and were averaged in each case.
(§2) 10 μl of enzyme solution was added to […]

Met-ase = biological target: T2, Met-ase (Rattus norvegicus, UniProt Q03238); assay: Initial rates of peptide thiobenzyl ester substrate hydrolysis by HPLC-purified Met-ase (HPLC fraction 104); conditions: [S] 100-133 μM, pH 7.5, 25° C.
T2 construct: endogenous in cells; host or cells: rat RNK-16 LGL leukemia cells, cytolytic granules, HPLC fraction 104
T2 sequence (Q03238 21-258 limits assumed): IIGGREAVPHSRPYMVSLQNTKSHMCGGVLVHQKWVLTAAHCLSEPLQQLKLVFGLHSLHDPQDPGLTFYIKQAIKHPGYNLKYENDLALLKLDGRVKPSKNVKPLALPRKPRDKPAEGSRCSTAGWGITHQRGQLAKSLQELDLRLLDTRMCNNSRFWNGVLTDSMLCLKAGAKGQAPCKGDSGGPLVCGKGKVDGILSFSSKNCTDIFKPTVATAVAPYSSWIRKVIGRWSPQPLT
Procedure: as §1, §2

Asp-ase = biological target: T3, Asp-ase (Rattus norvegicus, UniProt P18291); assay: Initial rates of peptide thiobenzyl ester substrate hydrolysis by HPLC-purified Asp-ase; conditions: [S] 100-133 μM, 0.1 M Hepes, 0.01 M CaCl2, pH 7.5, 8% Me2SO, 25° C.
T3 construct: Asp-ase purified by HPLC as previously described; endogenous in cells; host or cells: rat RNK LGL leukemia cells, cytolytic granules, HPLC-purified (Sayers et al. 1992)
T3 sequence (P18291 21-248): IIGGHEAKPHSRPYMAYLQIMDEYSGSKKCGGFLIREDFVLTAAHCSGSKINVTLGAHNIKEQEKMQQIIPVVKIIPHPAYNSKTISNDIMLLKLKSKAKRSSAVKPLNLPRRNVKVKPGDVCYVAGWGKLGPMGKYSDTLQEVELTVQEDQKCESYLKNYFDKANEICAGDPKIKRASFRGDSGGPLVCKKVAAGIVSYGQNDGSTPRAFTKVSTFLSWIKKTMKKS
Procedure: as §1, §2

[1] = 10 μl enzyme solution (HPLC fraction 104)
[2] = 25 μl enzyme solution (HPLC fraction 104)

| Compound | Initial Rates, Tryptase (Tryptase) | Initial Rates, Met-ase (Met-ase; [1]) | Initial Rates, Asp-ase (Asp-ase; 10 μl enzyme solution) | Initial Rates, Asp-ase (Asp-ase; 25 μl enzyme solution) | Initial Rates, Met-ase (Met-ase; [2]) |
| --- | --- | --- | --- | --- | --- |
| C[C@H](NC(=O)OC(C)(C)C)C(=O)N[C@@H](C)C(=O)N[C@@H](CC(=O)O)C(=O)SCc1ccccc1 [Boc--Ala--Ala--Asp--SBz1, Boc-Ala-Ala-Asp-SBzl] (Boc-Ala-Ala-Asp-SBn) | 0 nM/s | 0 nM/s | 12.6 nM/s | 44.6 nM/s | – |
| CC(C)C[C@H](NC(=O)[C@H](C)NC(=O)[C@H](C)NC(=O)OC(C)(C)C)C(=O)SCc1ccccc1 [Boc--Ala--Ala--Leu--SBz1] (Boc-Ala-Ala-Leu-SBn) | – | 2.9 nM/s | – | – | – |
| CSCC[C@H](NC(=O)[C@H](C)NC(=O)[C@H](C)NC(=O)OC(C)(C)C)C(=O)SCc1ccccc1 [Boc--Ala--Ala--Met--SBz1, Boc-Ala-Ala-Met-S Benzyl (Bzl)] (Boc-Ala-Ala-Met-SBn) | 0 nM/s | 4.2 nM/s | 0 nM/s | – | 13.7 nM/s |
| CCCC[C@H](NC(=O)[C@H](C)NC(=O)[C@H](C)NC(=O)OC(C)(C)C)C(=O)SCc1ccccc1 [Boc--Ala--Ala--Nle--SBz1] (Boc-Ala-Ala-[Nle]-SBn) | – | 3.9 nM/s | – | – | 15.2 nM/s |
| C[C@H](NC(=O)OC(C)(C)C)C(=O)N[C@@H](C)C(=O)N[C@@H](CO)C(=O)SCc1ccccc1 [Boc--Ala--Ala--Ser--SBz1] (Boc-Ala-Ala-Ser-SBn) | 0.4 nM/s | 0 nM/s | 1.3 nM/s | 6.7 nM/s | – |
